According to US12398154B2, “Azaquinazoline pan-KRas inhibitors” (Mirati Therapeutics, Inc., priority 2020, dated 2025):

What was measured:
KRas G13D = target: T1, KRas G13D (Homo sapiens, UniProt P01116, G13D); experiment: KRas binding assay (TR-FRET displacement);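 note: One-hour room temperature incubation before TR-FRET reading, IC50 from a four-parameter curve fit to percent-of-control data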
T1 construct: Biotinylated KRas (corresponding to amino acids 1-169, produced at Accelegan Inc.); biotin (biotinylated); purchased Accelegan Inc
Procedure: (§2) The ability of a compound to bind to KRas was measured using a TR-FRET displacement assay. […] After a 60-minute incubation at room temperature, the reaction was measured using a BMG LABTECH CLARIO star Plus via TR-FRET. […] The POC values were fit to a 4-parameter IC50 equation and the IC50 value reported.

KRas Q61H = target: T2, KRas Q61H (Homo sapiens, UniProt P01116, Q61H); experiment: KRas binding assay (TR-FRET displacement);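 note: TR-FRET signal read after one hour at room temperature, IC50 derived by four-parameter fitting of percent-of-control values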
T2 construct: Biotinylated KRas (corresponding to amino acids 1-169, produced at Accelegan Inc.); biotin (biotinylated); purchased Accelegan Inc
Procedure: as §2

[1] = system: phospho-ERK in A549 (G12S) cells; experiment: Inhibition of KRas-mediated phosphorylation of ERK (in-cell western); format: cell-based; settings: Homo sapiens, 3 hours compound, phospho-ERK normalized to GAPDH
Procedure, shortened: (§1)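 After a 3-hour incubation with diluted compound in 0.5% DMSO, cells are fixed, permeabilized and stained overnight at 4° C for phosphorylated ERK and GAPDH.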

[2] = system: phospho-ERK in AsPC-1 (G12D) cells; experiment: as above; format: cell-based; settings: Homo sapiens, ASPC1, 3 h, 3 hours compound, phospho-ERK normalized to GAPDH
Procedure, shortened: as §1

[3] = system: phospho-ERK in HCT116 (G13D) cells; experiment: as above; format: cell-based; settings: Homo sapiens, HCT-116, 3 hours compound, phospho-ERK normalized to GAPDH
Procedure, shortened: as §1

[4] = system: phospho-ERK in MKN1 (WTdep) cells; experiment: as above; format: cell-based; settings: Homo sapiens, MKN-1, 3 hours compound, phospho-ERK normalized to GAPDH
Procedure, shortened: as §1

[5] = system: phospho-ERK in NCI-H358 (G12C) cells; experiment: as above; format: cell-based; settings: Homo sapiens, 3 hours compound, phospho-ERK normalized to GAPDH
Procedure, shortened: as §1

[6] = system: phospho-ERK in NCI-H460 (Q61H) cells; experiment: as above; format: cell-based; settings: Homo sapiens, NCI-H460, 3 h, 3 hours compound, phospho-ERK normalized to GAPDH
Procedure, shortened: as §1

[7] = system: phospho-ERK in NCI-H727 (G12V) cells; experiment: as above; format: cell-based; settings: Homo sapiens, NCI-H727, 3 h, 3 hours compound, phospho-ERK normalized to GAPDH
Procedure, shortened: as §1

[8] = system: phospho-ERK in PSN-1 (G12R) cells; experiment: as above; format: cell-based; settings: Homo sapiens, PSN1, 3 hours compound, phospho-ERK normalized to GAPDH
Procedure, shortened: as §1

KRas G12D = KRas G12D (Homo sapiens, UniProt P01116, G12D); experiment: biochemical;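 note: TR-FRET displacement binding assay on KRas, read after a one-hour incubation at room temperature, IC50 fitted from percent-of-control values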
Procedure: as §2

KRas G12V = KRas G12V (Homo sapiens, UniProt P01116, G12V); experiment: biochemical;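 note: KRas binding measured by TR-FRET displacement at room temperature, IC50 fitted from percent of control values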
Procedure: as §2

KRas G12R = KRas G12R (Homo sapiens, UniProt P01116, G12R); experiment: biochemical;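 note: TR-FRET displacement assay of compound binding to KRas, read after one hour at room temperature, potency from a four-parameter fit of percent-of-control values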
Procedure: as §2

KRas G12A = KRas G12A (Homo sapiens, UniProt P01116, G12A); experiment: biochemical;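 note: binding to KRas measured by TR-FRET displacement after one hour at room temperature, IC50 from a four-parameter fit of percent-of-control values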
Procedure: as §2

KRas G12S = KRas G12S (Homo sapiens, UniProt P01116, G12S); experiment: biochemical;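 note: TR-FRET displacement binding to KRas, read after one hour incubation at room temperature, IC50 from four-parameter fit of percent of control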
Procedure: as §2

KRas G12C = KRas G12C (Homo sapiens, UniProt P01116, G12C); experiment: biochemical;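 note: binding to KRas assessed by TR-FRET displacement after one hour incubation at room temperature, potency fitted from percent-of-control values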
Procedure: as §2

KRas WT = KRas WT (Homo sapiens, UniProt P01116); experiment: biochemical;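 note: binding to KRas read as TR-FRET displacement after a one-hour room-temperature incubation, IC50 derived from percent-of-control values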
Procedure: as §2

pERK in ASPC1 cells = experiment: Inhibition of KRas phosphorylation of ERK (Cisbio HTRF pERK assay); settings: Homo sapiens, ASPC1, read-out: Inhibition (HTRF IC50) of KRas-mediated Phosphorylation of ERK, AsPC-1
pERK in H727 cells = experiment: as above; settings: Homo sapiens, NCI-H727, read-out: Inhibition (HTRF IC50) of KRas-mediated Phosphorylation of ERK, H727
Procedure: To harvest cells from flask using 0.05% Trypsin/EDTA solution. Add 10 mL of media to stop trypsinizing. Pipette the cells into a conical bottom 50 mL centrifuge tube and centrifuge 5 min×1000 rpm. • 2. Re-suspend the cell pellet in media, take a cell count, and then adjust the cell density using fresh media. • 3. Seed 6,000 cells into cell culture plate with 50 μL media. […] Incubate cell plate overnight in a 37° C., 5% CO2 incubator. • Compound titrations • 1. Use Tecan to complete the compound addition. Compounds start from 10 uM top, 3-fold dilution, and 10 doses. The final DMSO concentration is 0.8%. Dispensed 0.2 uM Trametinib as Min control. • 2. Incubate cell plate for 3 hrs in the incubator. • Detection with cisbio pERK HTRF kit • 1. […] At the end of the compound treatment, flick-off the media. • 3. Add 35 μL of lysis buffer per well using a Multidrop Combi. Then place on a plate agitator shaking at 300 rpm at 4° C. for 40 mins. • 4. Make up the HTRF antibody buffer. For each assay plate, mix 50 μL of d2-conjugate antibody with 950 μL of detection buffer. Similarly, mix 50 μL of Cryptate antibody with 950 μL of detection buffer. Then mix the two diluted antibodies together. • 5. Dispense 3.4 μL the antibody buffer to wells of an empty assay plate. Seal the plate and centrifuge plate 30 sec×1000 rpm. • 6. At the end of the 4° C. lysis, centrifuge the lysate plates 3 mins×1500 rpm. • 7. Use the Bravo to transfer 13.6 μL of lysate from cell culture plate to assay plate.
Then incubate assay plate for 2 hrs at room temperature. […] At the end of incubation, read plate on the Envision after centrifuging plate 30 sec× • 1000 rpm.

pERK in H460 cells = experiment: as above; settings: Homo sapiens, NCI-H460, read-out: Inhibition (HTRF IC50) of KRas-mediated Phosphorylation of ERK, H460
pERK in HCT116 cells = experiment: as above; settings: Homo sapiens, HCT-116, read-out: Inhibition (HTRF IC50) of KRas-mediated Phosphorylation of ERK, HCT116

T1 sequence (P01116 1-169 isoform P01116-2 G13D): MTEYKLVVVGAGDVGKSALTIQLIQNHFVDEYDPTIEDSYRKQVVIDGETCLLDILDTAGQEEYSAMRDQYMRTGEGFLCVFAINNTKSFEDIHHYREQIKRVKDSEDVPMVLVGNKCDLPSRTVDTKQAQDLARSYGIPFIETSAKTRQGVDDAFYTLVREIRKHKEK
KRas G12A, sequence (P01116 1-169 isoform P01116-2 G12A): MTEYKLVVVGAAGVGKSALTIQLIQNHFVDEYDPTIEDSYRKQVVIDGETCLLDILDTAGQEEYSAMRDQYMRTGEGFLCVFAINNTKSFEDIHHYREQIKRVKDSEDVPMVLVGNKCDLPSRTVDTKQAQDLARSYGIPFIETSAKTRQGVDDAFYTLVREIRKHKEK
KRas G12S, sequence (P01116 1-169 isoform P01116-2 G12S): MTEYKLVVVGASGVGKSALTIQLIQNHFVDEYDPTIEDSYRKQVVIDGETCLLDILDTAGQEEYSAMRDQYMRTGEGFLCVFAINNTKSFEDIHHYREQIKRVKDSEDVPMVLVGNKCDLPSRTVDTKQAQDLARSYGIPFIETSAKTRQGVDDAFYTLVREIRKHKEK
KRas G12C, sequence (P01116 1-169 isoform P01116-2 G12C): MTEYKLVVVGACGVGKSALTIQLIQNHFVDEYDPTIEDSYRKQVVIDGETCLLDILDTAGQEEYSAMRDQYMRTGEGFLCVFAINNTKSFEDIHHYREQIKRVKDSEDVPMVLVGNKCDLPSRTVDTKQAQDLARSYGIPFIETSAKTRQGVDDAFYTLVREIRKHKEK
KRas G12V, sequence (P01116 1-169 isoform P01116-2 G12V): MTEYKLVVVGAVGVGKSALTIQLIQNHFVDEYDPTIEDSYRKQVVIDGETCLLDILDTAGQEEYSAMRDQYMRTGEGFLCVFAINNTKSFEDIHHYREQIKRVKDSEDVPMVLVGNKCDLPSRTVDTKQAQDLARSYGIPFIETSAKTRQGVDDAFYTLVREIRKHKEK
T2 sequence (P01116 1-169 isoform P01116-2 Q61H): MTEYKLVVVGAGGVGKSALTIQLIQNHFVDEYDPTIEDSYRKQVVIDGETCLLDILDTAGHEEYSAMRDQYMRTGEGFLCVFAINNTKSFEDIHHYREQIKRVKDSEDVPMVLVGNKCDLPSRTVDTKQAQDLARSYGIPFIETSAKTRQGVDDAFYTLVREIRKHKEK
KRas G12D, sequence (P01116 1-169 isoform P01116-2 G12D): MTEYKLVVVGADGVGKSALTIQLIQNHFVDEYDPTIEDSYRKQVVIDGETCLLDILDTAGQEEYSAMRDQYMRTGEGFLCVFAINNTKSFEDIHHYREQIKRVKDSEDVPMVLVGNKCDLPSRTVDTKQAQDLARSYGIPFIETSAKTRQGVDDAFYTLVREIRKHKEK
KRas G12R, sequence (P01116 1-169 isoform P01116-2 G12R): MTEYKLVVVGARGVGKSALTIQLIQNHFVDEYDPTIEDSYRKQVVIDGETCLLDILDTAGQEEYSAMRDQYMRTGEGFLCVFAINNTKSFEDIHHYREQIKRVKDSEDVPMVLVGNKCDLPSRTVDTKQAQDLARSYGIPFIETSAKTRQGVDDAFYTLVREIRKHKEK
KRas WT, sequence (P01116 1-169 isoform P01116-2): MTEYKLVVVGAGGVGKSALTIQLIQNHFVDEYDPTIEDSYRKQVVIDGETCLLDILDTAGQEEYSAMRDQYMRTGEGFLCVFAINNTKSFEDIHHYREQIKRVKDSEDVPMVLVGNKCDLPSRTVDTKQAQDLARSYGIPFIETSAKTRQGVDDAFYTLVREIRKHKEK

Row | SMILES | IC50 (KRas G13D) [nM] | IC50 (KRas Q61H) [nM] | IC50 (KRas G12D) [µM] | IC50 (KRas G12V) [µM] | IC50 (KRas G12R) [µM] | IC50 (KRas G12A) [µM] | IC50 (KRas G12S) [µM] | IC50 (KRas G12C) [µM] | IC50 (pERK in ASPC1 cells) [µM] | IC50 (pERK in H727 cells) [µM] | IC50 (pERK in H460 cells) [µM] | IC50 (pERK in HCT116 cells) [µM] | IC50 [1] [nM] | IC50 [2] [nM] | IC50 [3] [nM] | IC50 [4] [nM] | IC50 [5] [nM] | IC50 [6] [nM] | IC50 [7] [nM] | IC50 [8] [nM] | also measured
1 | CCc1c(F)ccc2cc(O)cc(-c3ncc4c(N5CCC[C@@](C)(O)C5)nc(OCC56CCCN5CCC6)nc4c3F)c12 [Example 27] | ≤ 2 | ≤ 2 | ≤ 0.002 | ≤ 0.002 | ≤ 0.002 | ≤ 0.002 | ≤ 0.002 | ≤ 0.002 |  |  |  |  | 300 | 45 | 88 | 20 | 22 | 33 | 232 | 2920 | IC50 (KRas WT): ≤ 0.002 µM
2 | CCc1c(F)ccc2cccc(-c3ncc4c(N5CCCC6(CNC(=O)C6)C5)nc(OC[C@@]56CCCN5C[C@H](F)C6)nc4c3F)c12 (stereo partly drawn) [Example 37, 7-(7-(8-ethyl-7-fluoronaphthalen-1-yl)-8-fluoro-2-(((2R,7aS)-2-fluorotetrahydro-1H-pyrrolizin-7a(5H)-yl)methoxy)pyrido[4,3-d]pyrimidin-4-yl)-2,7-diazaspiro[4.5]decan-3-one] | 88 | 88 | 0.041 | 0.057 | 0.093 | 0.052 | 0.063 | 0.056 |  |  |  |  | 8950 | 2210 | 4360 | 1670 | 1720 | ≥ 10000 | ≥ 10000 | ≥ 10000 | IC50 (KRas WT): 0.068 µM
3 | CCc1c(F)ccc2cc(O)cc(-c3ncc4c(N5CC6CC(O)CC5C6)nc(OC[C@@]56CCCN5C[C@H](F)C6)nc4c3F)c12 (stereo partly drawn) [Example 58] |  |  | 0.006 | ≤ 0.002 | ≤ 0.002 |  |  |  | 0.075 | 0.045 | 0.069 | 0.179 | 455 | 24 | 1460 | 23 | 24 | 111 | 242 | 1310 | 
4 | CCc1c(F)ccc2cc(O)cc(-c3ncc4c(N5CCCn6nc(N)cc6C5)nc(OC[C@@]56CCCN5C[C@H](F)C6)nc4c3F)c12 [Example 61, 4-(4-(2-amino-7,8-dihydro-4H-pyrazolo[1,5-a][1,4]diazepin-5 (6H)-yl)-8-fluoro-2-(((2R,7aS)-2-fluorohexahydro-1H-pyrrolizin-7a-yl)methoxy)pyrido[4,3-d]pyrimidin-7-yl)-5-ethyl-6-fluoronaphthalen-2-ol] |  |  | ≤ 0.002 | ≤ 0.002 | ≤ 0.002 |  |  |  | 0.126 | 0.25 | 0.336 | 1.64 | 699 | 306 | 518 | 46 | 162 | 550 | 1110 | ≥ 10000 | 
5 | CCc1c(F)ccc2cc(O)cc(-c3ncc4c(N5CCOCC(CO)C5)nc(OC[C@@]56CCCN5C[C@H](F)C6)nc4c3F)c12 (stereo partly drawn) [Example 74, 5-ethyl-6-fluoro-4-(8-fluoro-2-(((2R,7aS)-2-fluorotetrahydro-1H-pyrrolizin-7a(5H)-yl)methoxy)-4-(6-(hydroxymethyl)-1,4-oxazepan-4-yl)pyrido[4,3-d]pyrimidin-7-yl)naphthalen-2-ol] |  |  | ≤ 0.002 | ≤ 0.002 | 0.003 |  |  |  | 0.065 | 0.084 | 0.151 | 0.336 | 63 | 72 | 662 | 8 | 10 | 55 | 355 | ≥ 10000 | 

Now from value to compound, other results behind:

Row | IC50 (KRas G13D) [nM] | IC50 (KRas Q61H) [nM] | IC50 (KRas G12D) [µM] | IC50 (KRas G12V) [µM] | IC50 (KRas G12R) [µM] | IC50 (KRas G12A) [µM] | IC50 (KRas G12S) [µM] | IC50 (KRas G12C) [µM] | IC50 (pERK in ASPC1 cells) [µM] | IC50 (pERK in H727 cells) [µM] | IC50 (pERK in H460 cells) [µM] | IC50 (pERK in HCT116 cells) [µM] | SMILES | IC50 [1] [nM] | IC50 [2] [nM] | IC50 [3] [nM] | IC50 [4] [nM] | IC50 [5] [nM] | IC50 [6] [nM] | IC50 [7] [nM] | IC50 [8] [nM] | also measured
6 | 36 | 50 | 0.021 | 0.035 | 0.069 | 0.036 | 0.038 | 0.035 |  |  |  |  | C#Cc1c(F)ccc2cccc(-c3ncc4c(N5CCC[C@@](C)(O)C5)nc(OC[C@@]56CCCN5C[C@H](F)C6)nc4c3F)c12 [Example 51, (R)-1-(7-(8-ethynyl-7-fluoronaphthalen-1-yl)-8-fluoro-2-(((2R,7aS)-2-fluorohexahydro-1H-pyrrolizin-7a-yl)methoxy)pyrido[4,3-d]pyrimidin-4-yl)-3-methylpiperidin-3-ol] | 2640 | 586 | 3720 | 873 | 715 | ≥ 10000 | 7230 | ≥ 10000 | IC50 (KRas WT): 0.032 µM
7 |  |  | 0.003 | ≤ 0.002 | ≤ 0.002 |  |  |  | 0.318 | 0.052 | 0.083 | 0.243 | CCc1c(F)ccc2cc(O)cc(-c3ncc4c(NCc5cccnc5N)nc(OC[C@@]56CCCN5C[C@H](F)C6)nc4c3F)c12 [Example 136, 4-(4-(((2-aminopyridin-3-yl)methyl)amino)-8-fluoro-2-(((2R,7aS)-2-fluorohexahydro-1H-pyrrolizin-7a-yl)methoxy)pyrido[4,3-d]pyrimidin-7-yl)-5-ethyl-6-fluoronaphthalen-2-ol] | 19 | 351 | 631 | 7 | 4 | 75 | 181 | ≥ 10000 | 
8 |  |  | ≤ 0.002 | ≤ 0.002 | 0.003 |  |  |  | 0.092 | 0.4 | 0.327 | 0.607 | CCc1c(F)ccc2cc(O)cc(-c3ncc4c(N5CCCC6(CNC6=O)C5)nc(OC[C@@]56CCCN5C[C@H](F)C6)nc4c3F)c12 (stereo partly drawn) [Example 146] | 1060 | 22 | 1000 | 22 | 15 | 204 | ≥ 10000 | 2530 | 
9 |  |  | 0.003 | ≤ 0.002 | ≤ 0.002 |  |  |  | 0.059 | 0.11 | 0.132 | 2.21 | C#Cc1c(F)ccc2cc(O)cc(-c3ncc4c(N5CCCC6(CC(=O)N6)C5)nc(OC[C@@]56CCCN5C[C@H](F)C6)nc4c3F)c12 (stereo partly drawn) [Example 148] | 550 | 105 | ≥ 10000 | 76 | 15 | 68 | 260 | 3780 | 
10 |  |  | ≤ 0.002 | ≤ 0.002 | ≤ 0.002 |  |  |  | 0.066 | 0.012 | 0.167 | 0.115 | C#Cc1c(F)ccc2cc(O)cc(-c3ncc4c(NCc5c[nH]c6ncccc56)nc(OC[C@@]56CCCN5C[C@H](F)C6)nc4c3F)c12 [Example 150, 4-(4-(((1H-pyrrolo[2,3-b]pyridin-3-yl)methyl)amino)-8-fluoro-2-(((2R,7aS)-2-fluorohexahydro-1H-pyrrolizin-7a-yl)methoxy)pyrido[4,3-d]pyrimidin-7-yl)-5-ethynyl-6-fluoronaphthalen-2-ol] | 45 | 435 | 996 | 13 | 4 | 362 | 626 | ≥ 10000 | 
